Measured values taken from patent publication US20250360167A1 (Keryx Biopharmaceuticals, Inc., priority 2013, published 2025).

Assays:
Type in all cases: in vivo, human
[1] = Phase 3 trial (Example 1): hospitalizations, cardiac severe adverse events
Method: Safety was assessed by recording and monitoring adverse events, concomitant medication use, physical examinations, and sequential blood by treatment assignment. Rates of adverse events were summarized overall and by organ system class, preferred term, severity, and suspected relationship to study drug by treatment assignment. AEs were summarized for the Washout Period, Safety Assessment Period, and Efficacy Assessment Period separately by treatment assignment. The changes from baseline in laboratory parameters over time were summarized by treatment assignment.

[2] = Phase 3 trial (Example 1): cumulative IV iron intake to Week 52
Method: Laboratory measurements were conducted throughout the study to assess safety and efficacy. The dose and specific IV iron preparation administered (if necessary) were at the discretion of the PI. Oral iron therapy was not permitted. Calcium-containing drugs were not permitted if given within two hours of food ingestion (calcium-containing drugs were permitted two hours or more prior to or following food ingestion or at bedtime for the purpose of raising the serum calcium). No Vitamin C supplements were permitted. Patients were allowed to take daily water soluble vitamins that include a small amount of Vitamin C (e.g., Centrum, Nephrocaps, Renaphro), but those patients were instructed to take them two hours or more prior to or following food ingestion or at bedtime. IV iron therapy was not permitted if the ferritin level is >1000 micrograms/L or the TSAT is >30%. If it was deemed in the patient's best interest to receive IV iron outside these parameters, the Clinical Coordinating Center (CCC) was consulted, and when approved and documented, was not considered a protocol exception.
The cumulative IV iron intake from randomization to Week 52 will be compared between treatment groups. This variable will be similarly analyzed as the primary efficacy variable using ANCOVA method. The two-sided 95% confidence intervals of treatment differences for all above comparisons will be presented.

ferritin = assay: Phase 2 trial (Example 2): ferritin
Description: Change in serum phosphorus, ferritin and TSAT levels from baseline to end of treatment after 12 weeks are the primary endpoints.
The key secondary endpoints of the study were the mean changes in ferritin, hemoglobin and FGF-23 from baseline to the end of the 12-week treatment period versus placebo in the ITT group.

[3] = Active Control n = 149, Ferric Citrate n = 289
[4] = Ferric Citrate vs Active Control
[5] = percent of patients, Ferric Citrate N = 289, Active Control N = 149
[6] = Method 1 to Handle Overlapping Doses, Table 19

In the case of “iron (+3), x (1, 2, 3-propanetricarboxylic acid, 2-hydroxy-), y (H2O) [KRX-0502]”, the “Average Hospitalizations per Subject” value [1, 3] is reported as 0.63, the “Subjects with One or More Hospitalizations, % of Study Subjects” value [1, 3] is reported as 34.6% and the “Total Hospitalizations” value [1, 3] is reported as 181. For the same substance, the “Average Hospitalizations per Subject, % Improvement” value [1, 4] was 24.1%, the “Average Hospitalizations per Subject, Difference” value [1, 4] was −0.20 and the “Subjects with One or More Hospitalizations, Relative % Difference” value ([1]; Ferric Citrate vs Active Control, p = 0.024) was −24.2%. For the same substance, the “hospitalizations related to cardiac severe adverse events” value ([1]; as compared to Active Control) was “able to reduce hospitalizations related to cardiac severe adverse events”, the “Subjects with One or More Hospitalizations” value ([1]; number of subjects, Active Control n = 149, Ferric Citrate n = 289) was 100 and the “Cardiac Disorders, %” value [1, 5] was 4.8%. For the same substance, the “Gastrointestinal Disorders, %” value [1, 5] was 6.2%, the “Infections, %” value [1, 5] was 12.1% and the “Average Daily IV iron intake based on the Cumulative IV iron intake to week 52 (Visit 4-21), Mean” value [2, 6] was 2.96. For the same substance, the “Average Daily IV iron intake based on the Cumulative IV iron intake to week 52 (Visit 4-21), Median” value [2, 6] was 1.86, the “mean reduction in average cumulative IV iron intake” value ([2]; administered over a period of 52 weeks, stated as embodiment) was 51.6% and the “Mean Ferritin, Baseline” value (ferritin; Baseline, ITT group, n = 72) was 116 ng/mL. The “Mean Ferritin, End of Treatment (Week 12)” value (ferritin; Week 12, last observation carried forward, ITT group, n = 72) was 189 ng/mL and the “ending ferritin level at Visit 11 (Week 12)” value (ferritin; sample size assumption) was “approximately 300 ng/mL”.
